Measured values reported in patent US20240016795A1, “BROMODOMAIN INHIBITORS FOR ANDROGEN RECEPTOR-DRIVEN CANCERS” (FORMA Therapeutics, Inc., priority 2020, published 2024).
Where two headings read alike, the source gives them in different places.

What was measured:
[1] = test system: HCC1500; assay: 10-day CellTiter-Glo antiproliferative assay, HCC1500; type: cell-based; settings: HCC1500, 240 h, 10-day exposure, AR High, ER +, Her2 −
Method: (§1) Breast cell lines were cultured according to the distributor's recommendations. The following day, cells were exposed to compounds up to 10 days. Cell viability was assessed using a CellTiter-Glo® assay (Promega) at the end of the incubation period. The growth inhibitory effect was assessed by the concentration inhibiting growth by 50% using a nonlinear regression equation and a variable slope (Graphpad Prism). The mRNA expression levels for the androgen receptor (HUGO: AR) was determined from the DepMap Portal database (release 19Q2).

[2] = test system: HCC1187; assay: 10-day CellTiter-Glo antiproliferative assay, HCC1187; type: cell-based; settings: Homo sapiens, HCC1187, 240 h, 10-day exposure, AR High, ER −, Her2 −
Method: as §1

[3] = test system: CAL148; assay: 10-day CellTiter-Glo antiproliferative assay, CAL148; type: cell-based; settings: Homo sapiens, CAL-148, 240 h, 10-day exposure, AR Low, ER −, Her2 −
Method: as §1

[4] = test system: MFM223; assay: 10-day CellTiter-Glo antiproliferative assay, MFM223; type: cell-based; settings: Homo sapiens, MFM-223, 240 h, 10-day exposure, AR Low, ER −, Her2 −
Method: as §1

[5] = test system: MDA-MB-231; assay: 10-day CellTiter-Glo antiproliferative assay, MDA-MB-231; type: cell-based; settings: Homo sapiens, MDA-MB-231, 240 h, 10-day exposure, AR Low, ER −, Her2 −
Method: as §1

[6] = test system: LNCaP; assay: 10-day prostate cancer cell proliferation assay, LNCaP; type: cell-based; settings: Homo sapiens, LNCaP, 240 h; 10 days exposure; T878A/WT, androgen-dependent
Method: (§2) Prostate cell lines were obtained from ATCC or DSMZ and cultured according to the distributor's recommendations. Prostate cancer cells were plated and incubated overnight. […] Cell viability was assessed using a CellTiter-Glo® assay (Promega) after 10 days drug exposure. The growth inhibitory effect was assessed by the concentration inhibiting growth by 50% using a nonlinear regression equation and a variable slope (Graphpad Prism).

[7] = test system: 22Rv1; assay: 10-day prostate cancer cell proliferation assay, 22Rv1; type: cell-based; settings: Homo sapiens, 22Rv1, 240 h
Method: as §2

[8] = test system: PC-3; assay: 10-day prostate cancer cell proliferation assay, PC-3; type: cell-based; settings: Homo sapiens, PC-3, 240 h; 10 days exposure; AR negative
Method: as §2

[9] = test system: DU 145; assay: 10-day prostate cancer cell proliferation assay, DU 145; type: cell-based; settings: Homo sapiens, DU-145, 240 h; 10 days exposure; AR negative
Method: as §2

[10] = test system: AR+ prostate cancer cell lines (LnCaP, VCaP, 22Rv1); assay: 10-day proliferation assay, all AR+ prostate cancer cell lines; type: cell-based; settings: 240 h; 10-day assay; read-out: growth inhibitory effect (IC50), all AR+ cell lines
Method: Two AR-negative prostate cancer cell lines DU145 and PC-3 were also evaluated.
as §2

[11] = test system: TMPRSS2; assay: Taqman gene expression in AR-positive breast cancer cells, TMPRSS2; type: cell-based; settings: 24 hours, read-out: IC50, TMPRSS2 mRNA
Method: AR-positive breast cancer cells were exposed to increasing concentrations of compounds for 24 hours. RNA was extracted and gene expression measured using Taqman® assays for TMPRSS2 and XBP1.

[12] = test system: KLK3; assay: qPCR gene expression in AR-v7+ prostate cancer cells, KLK3; type: cell-based; settings: 24 h
Method: (§3) AR-v7+ prostate cancer cells were exposed to compounds 1, 2, 3, or 4 for 24 h. RNA was extracted and gene expression was measured by qPCR using Taqman® primer-probes. GAPDH was used as a housekeeping gene.

[13] = test system: MYC; assay: qPCR gene expression in AR-v7+ prostate cancer cells, MYC; type: cell-based; settings: 24 h
Method: as §3

[14] = test system: TMPRSS2; assay: qPCR gene expression in VCaP, TMPRSS2; type: cell-based; settings: Homo sapiens, 24 h
Method: (§4) RNA was extracted using Qiacube RNAeasy Mini (Qiagen). For all genes tested, the qPCR reactions were carried out in triplicate with 250 ng RNA per reaction and Taqman® primer-probes. GAPDH was used as a housekeeping gene.

[15] = test system: SPDEF; assay: qPCR gene expression in VCaP, SPDEF; type: cell-based; settings: Homo sapiens, 24 h
Method: as §4

[16] = test system: MYC; assay: qPCR gene expression in VCaP, MYC; type: cell-based; settings: Homo sapiens, 24 h
Method: as §4

[17] = test system: SORD; assay: qPCR gene expression in VCaP, SORD; type: cell-based; settings: Homo sapiens, 24 h
Method: as §4

[18] = test system: KLK3 (PSA); assay: qPCR gene expression in 22Rv1, KLK3 (PSA); type: cell-based; settings: Homo sapiens, 22Rv1, 24 h
Method: as §4

[19] = test system: SPDEF; assay: qPCR gene expression in 22Rv1, SPDEF; type: cell-based; settings: Homo sapiens, 22Rv1, 24 h
Method: as §4

[20] = test system: SORD; assay: qPCR gene expression in 22Rv1, SORD; type: cell-based; settings: Homo sapiens, 22Rv1, 24 h
Method: as §4

[21] = test system: AR target genes; assay: Reduction of AR target genes in VCaP cells; type: cell-based; settings: Homo sapiens, 24 hr exposure
Method: as §4

[22] = test system: AR target genes; assay: Reduction of AR target genes in 22Rv1 cells; type: cell-based; settings: Homo sapiens, 24 hr exposure
Method: as §4

[23] = test system: H3K27Ac; assay: H3K27Ac western blot in a prostate cancer cell line; type: cell-based
[24] = test system: AR+ triple negative breast cancer xenograft; assay: AR+ triple negative breast cancer cell line derived xenograft; type: in vivo, NOD SCID mice; settings: 50 mg/kg orally daily
Method: Briefly, AR-positive breast cancer tumor cells (1×107) were implanted subcutaneously in the flank of 6-8-week-old NOD SCID mice. Mice were randomized, and treatment started when mean tumor size reached 160 mm^3 (8 mice per cohort). […] Tumor volume (TV) was measured twice weekly by caliper and the tumor volume (mm^3) calculated as follows: TV=a×b×b/2, where “a” and “b” are long and short diameters of a tumor, respectively.
The average body weight loss was 3.7%.
The study was completed using methods analogous to those described in Example 7, above.
Three dosing cycles were completed for mice within these cohorts.
Mice in the 30 mg/kg cohort were dosed daily for three weeks.
Tumor volume was assessed at Day 14, Day 17, Day 21, Day 24, and Day 27 of the study.

COC(=O)N1c2ccc3c(nc([C@H](O)c4cc(F)ccc4OC)n3[C@@H]3CCC[C@@H](C(=O)O)C3)c2CC[C@@H]1C [Compound 1, (1R,3R)-3-[(7S)-2-[(R)-(5-fluoro-2-methoxyphenyl)(hydroxy)methyl]-6-(methoxycarbonyl)-7-methyl-3H,6H,7H,8H,9H-imidazo[4,5-f]quinolin-3-yl]cyclohexane-1-carboxylic acid]
IC50 [1]: 0.5 to 1 µM | IC50 [2]: 0.2 to 0.5 µM | IC50 [3]: > 1 µM | IC50 [4]: > 1 µM | IC50 [5]: > 1 µM | IC50 [6]: > 1000 nM | IC50 ([7]; 10-day assay, read-out: anti-proliferative effect (IC50), 22Rv1): 500 to 1000 nM | IC50 ([7]; 10 days exposure, H857Y/H857Y, AR v7+, androgen-independent, read-out: IC50, 22Rv1): 500 to 1000 nM | IC50 [8]: > 1000 nM | IC50 [9]: > 1000 nM | IC50 [10]: 500 to 1500 nM | IC50 [11]: < 100 nM | IC50 [12]: 10 to 50 nM | IC50 [13]: > 100 nM | IC50 [14]: 0.01 to 0.05 µM | IC50 [15]: > 0.1 µM | IC50 [16]: 0.05 to 0.1 µM | IC50 [17]: > 0.1 µM | IC50 [18]: 0.01 to 0.05 µM | IC50 [19]: > 0.1 µM | IC50 [20]: > 0.1 µM | IC50 [21]: < 500 nM | IC50 [22]: < 500 nM | H3K27Ac level [23]: reduces H3K27Ac in a concentration-dependent manner | average body weight loss [24]: 3.7% | tumor growth inhibition (TGI) ([24]; end of treatment, versus vehicle control): 104%
